Test results reported in patent publication US20240182521A1, “CELL-PENETRATING PEPTIDE VARIANT AND USE THEREOF” (REGEN INNOPHARM INC., priority 2021, published 2024).

Tests used:
[1] = test system: diabetic model mice (db/db); assay: Blood vessel formation in diabetic wounds (histology, day 7); assay type: in vivo, mouse; details: once daily, day 7 after wounding
Procedure: Since diabetic ulcers were hardly treated by insufficient vascular supply due to impaired angiogenesis and ischemic necrosis, it was confirmed whether the LPX peptide contributed to blood vessel formation in diabetic wound healing. Specifically, diabetic model mice (db/db) were wounded and then treated with LPX 103 or EGF once daily, and the recovery of angiogenesis was analyzed on day 7 after wounding, and in order to visualize the extravasation of red blood cells within the tissue, the wound and entrance (red dotted box) of each group were magnified and images were confirmed.

[2] = test system: diabetic mouse model (db/db); assay: Diabetic wound healing by combined treatment with EGF; assay type: in vivo; details: db/db mice, 8 mm punch wound
Excerpt: The diabetic wound healing effect by combined treatment with LPX peptide and EGF was confirmed.

NIH3T3 cells [3] = assay: Intracellular stability, cell proliferation and migration of RNA binding / zinc finger region variants; assay type: cell-based, mouse
Procedure: The protein stability of variants with mutations in the RNA binding region and the zinc finger region was confirmed. Specifically, LPX103 variants with mutated amino acid residues for RNA binding during cell migration were treated with NIH3T3 cells for 1 day, respectively, and based on the molecular modeling program, the intracellular stabilization effect of each peptide was analyzed after 72 hours. The mutation energy of each amino acid residue was confirmed, and variants that may cause<−1 Kcal/mol due to substitution were selected as potential mutations that may increase the stability and activity of the peptide (FIGS. 23 and 24). The effects of the selected variants on cell proliferation and cell migration were confirmed in NIH3T3 cells (FIG. 25), and as a result, mutations in the RNA binding region and the zinc finger region that improved or decreased the stability of the peptide in the cell were confirmed (FIG. 26).

NIH3T3 cells [4] = assay: Glycolysis, extracellular acidification rate (ECAR), Seahorse XF analyzer; assay type: cell-based, mouse
Procedure: NIH3T3 cells were incubated in a glucose-free medium for 1 day and then sequentially treated with glucose, oligomycin, and 2-DG, and an extracellular acidification rate (ECAR) was measured as a measure of lactate production using a Seahorse extracellular flux (XF) analyzer and quantification and profile of ECAR were confirmed in cells treated with LPX peptide (Mean SEM n=3, *; p<0.05).

[5] = test system: NIH3T3 cell line and mouse mesenchymal stem cells (mMSCs); assay: Cell penetrating effect (FACS, confocal microscopy) of FITC-attached peptides; assay type: cell-based; details: compared to LPX101 (2 μM)
Excerpt: A cell penetrating effect was confirmed in penetrating peptides LPX101 (SEQ ID NO: 11), LPX102 (SEQ ID NO: 12), and LPX103 (SEQ ID NO: 13) having three structures including a signal peptide, an RNA binding affinity residue, and an RNA binding residue (FIG. 1), and two zinc finger motifs. Specifically, in order to measure cell penetrating efficiency, respective peptides that may have been attached to the cell membrane surface were removed by applying a Heparin & Trypsin washing method used in a Keplan group [Kaplan I M, Wadia J S, Dowdy S F (2005) Cationic TAT peptide transduction domain enters cells by macropinocytosis. J Controlled release 102: 247-253] to a NIH3T3 cell line and mouse mesenchymal stem cells (mMSCs). […] Then, the cells were washed three times with PBS and detached with trypsin, and then FACS analysis was performed. In addition, whether each peptide actually existed in the nucleus or cytoplasm of the cell was confirmed by confocal microscopy after 18 hours of peptide treatment, and membrane binding was labeled with PKH.

NIH3T3 cells [6] = assay: Cell migration effects, Table 1; assay type: cell-based, mouse; details: vehicle = 1
Procedure: Various variants of the LPX peptides were prepared as illustrated in FIG. 18. Specifically, various constructs (26 constructs including 101) were prepared by adding various mutations (substitution of a CPP region, amino acid mutation of an RNA binding portion and a zinc finger structure, and addition of his-tag) to the structure of LPX101 in FIG. 19 (FIG. 20).

[7] = test system: diabetes model mice (db/db); assay: Diabetic wound healing in diabetes model mice (db/db); assay type: in vivo, mouse; details: db/db mouse model
Procedure: The skins of wild type (WT) mice and diabetes model mice (db/db) (n=14 each) were punched with an 8 mm diameter puncher and treated with LPX101 (2 mg/ml, 20 μl) or PBS daily for 14 days and subjected to wound dressing. The wound healing effect was confirmed by analyzing an initial wound area and a re-epithelialization area using ImageJ (mean SEM n=3, *; p<0.05). In addition, the wound healing effect in wounds treated with LPX101 was histologically evaluated. Specifically, diabetic mice (db/db) were stained with H/E or trichrome at 7 and 14 days after wound induction and then confirmed under a microscope, and re-epithelialization and granulation tissue were quantified using ImageJ (n=3, ***; p<0.001). In addition, the wounds of db/db mice were treated with LPX101, and the tissue epidermis after 14 days was histologically analyzed.
(§1) The wound healing effects of LPX101, LPX102, and LPX103 were confirmed in an STZ-induced diabetic mouse model. […] Thereafter, according to a schedule shown in FIG. 12A, PBS (negative control), EGF (positive control) 50 μg/ml, LPX101 2 mg/ml (20 μl), LPX102 and LPX103 (2 mg/ml (20 μl)) were treated, respectively, and then the effect of wound healing in a diabetes-induced mouse model was confirmed through imaging, re-epithelialization, and diabetes phenotypes (hyperglycemia and impaired glucose tolerance test (IPGTT)) (n=10 for each group, *; p<0.05). Additionally, to compare the regenerative activity of LPX peptides in a diabetic mouse model, wound healing kinetics measured by a % non-epithelialized area to an initial wound area (n=8 for each group), and quantification of re-epithelialization analyzed as % of a re-epithelialized area to the initial wound area were confirmed.

[8] = test system: STZ-induced diabetic mouse model; assay: Wound healing in STZ-induced diabetic mouse model; assay type: in vivo; details: 2 mg/ml (20 μl)
Procedure: as §1

[9] = test system: diabetic human epidermal keratinocyte (DHEK); assay: Cell migration across a scratched boundary; assay type: cell-based; details: DHEK cells; at lower concentrations than LPX101
Procedure: An effect of LPX101 peptide on cell growth was confirmed in a NIH3T3 cell line, and the effects of LPX101, LPX102, and LPX103 peptides on cell migration were confirmed in diabetic human epidermal keratinocyte (DHEK) as a diabetic cell line. Specifically, mMSC or NIH3T3 cells were treated with the LPX101 peptide, incubated for 1 hour, and then washed. A % increase in cell growth by LPX treatment was confirmed by measuring the number of cells after 3 days of treatment and calculating a relative proliferation rate as % compared to a control group (n=3). Additionally, in order to confirm the cell migration effect, DHEK cells were treated with LPX101, LPX102, and LPX103 peptides, incubated for 1 hour, and then washed. Thereafter, the migration of cells across a scratched boundary was measured 72 hours after treatment. The number of cells that migrated across a scratch line was measured by image analysis using ImageJ.

diabetic mice (db/db) = assay: Histological evaluation of wound re-epithelialization (H/E, day 10); assay type: in vivo, mouse; details: day 10 after initial injury
Excerpt: In order to histologically evaluate wound re-epithelialization in diabetic mice by LPX peptides 101, 102 and 103, wound tissues from diabetic mice (db/db) treated by each LPX were H/E stained on day 10 after initial injury and confirmed under a microscope (50X and 100x).

LPX103: cell-penetrating peptide consisting of amino acid sequence SEQ ID NO: 13 (GSERRPKGKSMQKRRSKGDRCYNCGGLDHHAKECKL; LPX103)
capillary formation compared to EGF [1]: more mature capillary formation | hemorrhage (extravasation of RBC) compared to EGF [1]: less hemorrhage (extravasation of RBC) | diabetic wound healing effect in combination with EGF [2]: improved when treated in combination with EGF | stability and biological activity (NIH3T3 cells [3]): high stability and biological activity | glucose metabolism (glycolysis), ECAR (NIH3T3 cells [4]): promoted glucose metabolism (glycolysis) | cell permeability compared to LPX101 [5]: high cell permeability similar to LPX101 | Effects on cell migration (3 expts) (NIH3T3 cells [6]; 1 uM): 1.3 | Effects on cell migration (3 expts) (NIH3T3 cells [6]; 5 uM): 1.3 | diabetic wound healing effect (wound healing kinetics and re-epithelialization) compared to LPX101 [7]: better diabetic wound healing effect than LPX101 | wound healing effect compared to LPX101 [8]: better effects than LPX101 | cell migration compared to LPX101 [9]: promoted cell migration to a similar extent to LPX101 | re-epithelialization of diabetic wounds (histology) (diabetic mice (db/db)): significantly improved re-epithelialization
